Measured values reported in patent US10487071B2, “Bis-triazole compounds with anti-biofilm and anti-corrosion properties” (Université de Toulon, priority 2015, dated 2019).
Read-outs that look alike come from different tables or passages of the source.

Columns and labels:
[1] = test system: Pseudoalteromonas ulvae (TC14); experiment: Anti-adhesion test, strain TC14; format: cell-based; conditions: for activity at 200 µM / EC50: Pseudoalteromonas ulvae; for activity at 200 µM: 15 h; for EC50: read-out: EC50 (effective concentration to inhibit 50% of the adhesion)
Outline: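 Stationary-phase TC14 cells grown in VNSS, diluted in artificial seawater and incubated with compound at eight concentrations in triplicate (DMSO ≤2%) for about 15 h. Non-adhered bacteria removed and adhered cells quantified by SYTO 61 (1 μM) staining. EC50 derived from sigmoid fit of % inhibition versus log concentration.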

[2] = Electrochemical impedance spectroscopy, corrosion inhibition; conditions: 200 ppm; mild steel in 1N HCl; EIS
Experimental: The corrosion rates were determined by electrochemical impedance spectroscopy measurements and gravimetry.
The electrochemical measurements were performed on a 273 A potentiostat (EGG/PAR) coupled to a Solartron 1255 frequency response analyser. EIS measurements were carried out with a solution containing 1N HCl in the absence and presence of the tested compound at a concentration of 200 ppm under unstirred conditions, at open circuit potential with a 10 mV rms amplitude perturbation over a 20 mHz-100 kHz frequency range.
EIS data were registered and analysed using Zview software (Scribners Associates, USA).
A conventional three-electrode cell was used. It comprises a platinum foil as auxiliary electrode, a saturated calomel reference electrode (SCE) and a mild steel coupon as the working electrode with a surface area of 15.7 cm^2.
Electrochemical impedance spectroscopic (EIS) studies have been conducted to investigate corrosion inhibition processes of compounds of the invention according to the Electrochemical impedance spectroscopic test method described herein.
The high frequency loop was analyzed in terms of an equivalent circuit involving a parallel combination of Rct and the constant phase element of double layer (CPE). The inhibition efficiency, IE (%), was estimated from the measured Rct values using the following equation: […]

Paracoccus sp. (4M6) [3] = experiment: Anti-adhesion test, strain 4M6; format: cell-based; conditions: Paracoccus; for activity at 200 µM: 15 h, read-out: % of adhesion at 200 μM, 4M6; for EC50: read-out: EC50 (effective concentration to inhibit 50% of the adhesion), 4M6
Outline: (§1)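 Stationary-phase bacteria grown in VNSS, diluted in artificial sea water and incubated about 15 h with compound at eight concentrations in triplicate, DMSO up to 2%. Adhered cells stained with SYTO 61 (1 μM). EC50 from a sigmoid fit of % inhibition against log concentration.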

[4] = Gravimetry (weight loss), corrosion inhibition; conditions: mild steel in 1N HCl
Outline: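 Mild steel coupons (2.5×2.0×0.1 cm) immersed in non-de-aerated 1N HCl without or with various inhibitor concentrations, then washed, dried and reweighed; duplicate runs. IE (%) calculated from corrosion rates without (CR^o) and with (CR) inhibitor.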

[5] = test system: Pseudoalteromonas lipolytica (TC8); experiment: Anti-adhesion test, strain TC8; format: cell-based; conditions: Pseudoalteromonas lipolytica; for activity at 200 µM: 15 h, read-out: % of adhesion at 200 μM, TC8; for EC50: read-out: EC50 (effective concentration to inhibit 50% of the adhesion), TC8
Outline: as §1

[6] = test system: Pseudoalteromonas lipolytica (TC8); experiment: microbe, parasite or virus in culture; conditions: for CC50: Pseudoalteromonas lipolytica, read-out: LC50 (necessary concentration to kill 50% of the bacteria), TC8; for IS: LC50/EC50 (selectivity index), TC8: strain TC8
Description: (§2) The anti-adhesion bioassays and toxicity tests are adapted from those disclosed in M. Camps, J.-F. Briand, L. Guentas-Dombrowsky, G. Culioli, A. Bazire and Y. Blache, Mar. Poll.
(§3) After growth on VNSS, bacterial strains were harvested during the exponential phase. The microtiter plates (sterile transparent PS; Nunc, Fisher Scientific) were filled as described in the Anti-adhesion test method using VNSS instead of ASW to allow bacterial growth. The growth was followed by measuring the turbidity (OD600 nm) every hour during 6 or 7 hours. Then, resazurin (50 μM) was added in all the wells, and fluorescence was measured after 2 h to quantify the percent of bacterial viability. The same methodology used with SYTO 61 was applied to calculate a percent of viability after resazurin staining.

Paracoccus sp. (4M6) [7] = experiment: microbe, parasite or virus in culture; conditions: for CC50: Paracoccus, read-out: LC50 (necessary concentration to kill 50% of the bacteria), 4M6; for IS: LC50/EC50 (selectivity index), 4M6: strain 4M6
Description: as §2, §3

[8] = test system: marine bacterial strains (TC14, TC8, 4M6, TC5 and TC11); experiment: Anti-adhesion test, summary over the strains; format: cell-based; conditions: for EC50 compared with TBTO/ZINEB: comparison with reference biocides
Experimental: (§4) Bacterial strains were grown on Väätänen nine-salts solution (VNSS). When the stationary phase was reached, the bacterial suspension was centrifuged. Cells were then diluted in sterile artificial sea water (ASW) and introduced in microtiter plates (sterile black PS; Nunc, Fisher Scientific, France) with the tested compound (at eight concentrations in three replicates) in the presence of three controls: (i) non-specific staining control, (ii) adhesion control, and (iii) positive control. The maximum percentage of solvent (DMSO 2%) used to dilute the tested compound was also tested in triplicate as additional control. After incubation during an optimized adhesion time (moderately 15 h), non-adhered bacteria were eliminated and adhered cells were quantified after SYTO 61 (1 μM) staining. A percentage of inhibition was calculated per well. A sigmoid dose-response curve was obtained by plotting the percentage of inhibition as a function of the log of tested compound concentration, after mean (n=3) and standard deviation (SD) calculation per triplicate for each concentration. EC50 values were then calculated for each compound.
(§5) In examples 64 and 65, the following marine bacterial strains are used.

Polaribacter sp. (TC5) [9] = experiment: Toxicity test, strain TC5; format: cell-based; conditions: for CC50: read-out: LC50 (necessary concentration to kill 50% of the bacteria)
Description: (§6) Polaribacter sp. (TC5) was isolated in June 2010 in the Military Harbor of Toulon (Mediterranean Sea, France) as described in F. Brian-Jaisson, A. Ortalo-Magné, L. Guentas-Dombrowsky, F. Armougom, Y. Blache, M. Molmeret, Microb. Ecol., 2014, 68, 94-110.

[10] = test system: Pseudoalteromonas ulvae (TC14); experiment: Toxicity test, strain TC14; format: cell-based
Description: Pseudoalteromonas ulvae (TC14) was isolated in June 2010 in the Military Harbor of Toulon (Mediterranean Sea, France) as described in F. Brian-Jaisson, A. Ortalo-Magné, L. Guentas-Dombrowsky, F. Armougom, Y. Blache, M. Molmeret, Microb. Ecol., 2014, 68, 94-110.

Shewanella sp. (TC11) [11] = experiment: Toxicity test, strain TC11; format: cell-based
Description: (§7) Shewanella sp. (TC11) was isolated in June 2010 in the Military Harbor of Toulon (Mediterranean Sea, France) as described in F. Brian-Jaisson, A. Ortalo-Magné, L. Guentas-Dombrowsky, F. Armougom, Y. Blache, M. Molmeret, Microb. Ecol., 2014, 68, 94-110.

Polaribacter sp. (TC5) [12] = experiment: Anti-adhesion test, strain TC5; format: cell-based; conditions: for activity at 200 µM: 15 h; for EC50: read-out: EC50 (effective concentration to inhibit 50% of the adhesion)
Experimental: as §4, §6

Shewanella sp. (TC11) [13] = experiment: Anti-adhesion test, strain TC11; format: cell-based; conditions: for activity at 200 µM: 15 h, strain TC11, read-out: % of adhesion at 200 μM, TC11; for EC50: read-out: EC50 (effective concentration to inhibit 50% of the adhesion), strain TC11
Experimental: as §4, §7

[14] = test system: marine bacterial strains (TC14, TC8, 4M6, TC5 and TC11); experiment: Toxicity test, summary over the strains; format: cell-based; conditions: comparison with reference biocides
Description: as §5

[15] = read-out: inhibition of the adhesion of at least four marine bacterial strains
[16] = read-out: inhibition of the adhesion of at least two marine bacterial strains

Row | SMILES | activity at 200 µM ([1]; 200 μM) | EC50 [1] | activity at 200 µM (Paracoccus sp. (4M6) [3]) | IE % ([4]; 0.1 ppm) | IE % ([4]; 0.3 ppm) | IE % ([4]; 0.5 ppm) | IE % ([4]; 2 ppm) | IE % ([4]; 10 ppm) | activity at 200 µM [5] | EC50 [5] | CC50 [6] | IS: LC50/EC50 (selectivity index), TC8 [6] | CC50 (Paracoccus sp. (4M6) [7]) | IS: LC50/EC50 (selectivity index), 4M6 (Paracoccus sp. (4M6) [7]) | EC50 (Paracoccus sp. (4M6) [3]) | EC50 compared with TBTO/ZINEB [8] | inhibition at 200 µM [8, 15] | inhibition at 200 µM [8, 16] | IS: LC50/EC50 (selectivity index), TC5 (Polaribacter sp. (TC5) [9]) | CC50 (Polaribacter sp. (TC5) [9]) | other results
1 | CN(C)CCOc1ccc(CCn2cc(CNCc3cn(CCc4ccc(OCCN(C)C)c(Br)c4)nn3)nn2)cc1Br [AS164] | 40.8 ± 5% | 126 ± 21.5 µM | 51.7 ± 4.3% | 57.10% | 90.49% | 89.20% | 92.42% | 97.20% | 47.1 ± 1% | 176 ± 3 µM |  |  |  |  |  |  |  |  |  |  | inhibition efficiency (IE %) from Rct values [2]: around 95%; inhibition efficiency from weight loss experiments ([4]; 25-200 ppm): greater than 97%
2 | CN(C)CCOc1c(Br)cc(CCn2cc(-c3ccc(-c4cn(CCc5cc(Br)c(OCCN(C)C)c(Br)c5)nn4)cc3)nn2)cc1Br [SA33, 2-(4-(2-(4-(4-(1-(4-(2-(dimethylamino)ethoxy)-3,5-dibromophenethyl)-1H-1,2,3-triazol-4-yl)phenyl)-1H-1,2,3-triazol-1-yl)ethyl)-2,6-dibromophenoxy)-N,N-dimethylethanamine] | 6.3 ± 1.3% | 20.4 ± 1.2 µM | 7.4 ± 8.3% | 87.08% | 95.37% | 95.89% | 96.25% | 96.03% | 6.8 ± 4.3% | 42.5 ± 16.9 µM | 199 µM | 4.7 | 126 µM | 11.2 | 11.3 ± 9.1 µM | comparable to that of ZINEB | ≥ 85% | ≥ 65% | 4.8 | 92.6 µM | IS: LC50/EC50 (selectivity index), TC14 [10]: 12.45; LC50 (necessary concentration to kill 50% of the bacteria), TC14 [10]: 254.1 µM; IS: LC50/EC50 (selectivity index), TC11 (Shewanella sp. (TC11) [11]): 4.2; LC50 (necessary concentration to kill 50% of the bacteria), TC11 (Shewanella sp. (TC11) [11]): 134.8 µM; activity at 200 µM (Polaribacter sp. (TC5) [12]): 0.7 ± 0.7%; EC50 (Polaribacter sp. (TC5) [12]): 19.2 ± 2.1 µM; activity at 200 µM (Shewanella sp. (TC11) [13]): 4.4 ± 2.7%; EC50 (Shewanella sp. (TC11) [13]): 32 ± 8.1 µM; toxicity by LC50 values compared with TBTO/ZINEB [14]: less toxic than ZINEB
3 | CN(C)CCCOc1ccc(CCn2cc(-c3ccc(-c4cn(CCc5ccc(OCCCN(C)C)c(Br)c5)nn4)cc3)nn2)cc1Br [AS172, 3-(4-(2-(4-(4-(1-(4-(3-(dimethylamino)propoxy)-3-bromophenethyl)-1H-1,2,3-triazol-4-yl)phenyl)-1H-1,2,3-triazol-1-yl)ethyl)-2-bromophenoxy)-N,N-dimethylpropan-1-amine] | 0.5 ± 0.8% | 0.39 ± 0.28 µM | 5.1 ± 1.4% | 40.16% | 92.94% | 91.11% | 96.44% | 98.15% | 5.3 ± 2.5% | 15 ± 3.3 µM | 165 µM | 10.9 | 82.3 µM | 22.9 | 3.6 ± 3.8 µM | comparable to that of TBTO and lower than that of ZINEB | ≥ 85% | ≥ 65% | 11.1 | 122 µM | inhibition of the adhesion of bacterial strain TC14 ([1]; 200 μM): totally inhibit; IS: LC50/EC50 (selectivity index), TC14 [10]: 576.1; LC50 (necessary concentration to kill 50% of the bacteria), TC14 [10]: 224.7 µM; IS: LC50/EC50 (selectivity index), TC11 (Shewanella sp. (TC11) [11]): 18.9; LC50 (necessary concentration to kill 50% of the bacteria), TC11 (Shewanella sp. (TC11) [11]): 293 µM; activity at 200 µM (Polaribacter sp. (TC5) [12]): 12.7 ± 5.7%; EC50 (Polaribacter sp. (TC5) [12]): 11 ± 0.3 µM; activity at 200 µM (Shewanella sp. (TC11) [13]): 4.6 ± 0.4%; EC50 (Shewanella sp. (TC11) [13]): 15.6 ± 2.9 µM; toxicity by LC50 values compared with TBTO/ZINEB [14]: less toxic than TBTO and ZINEB
